In patent publication US8716292B2, “Riminophenazines with 2-(heteroaryl)amino substituents and their anti-microbial activity” (priority 2010, dated 2014):
Values after ≈ are worked out from the molar mass of the structure shown. Read-outs that look alike come from different tables or passages of the source.

Test system: Mycobacterium tuberculosis H37Rv strains
Experiment: In vitro assay for antimicrobial susceptibility (microplate Alamar blue MIC)
Format: cell-based
Conditions: Mycobacterium tuberculosis, H37RV, read-out: MIC (μg/mL) against H37Rv
[1] = 7H9, Alamar blue, inhibition ≧90%
[2] = in vitro, Mycobacterium tuberculosis H37Rv strains

Clc1ccc(-n2c3c/c(=N\C4CCOCC4)c(Nc4cncnc4)cc-3nc3ccccc32)cc1 [TBI-960, 5-(4-Chlorophenyl)-3-(4-tetrahydropyranyl)imino-2-(pyrimidin-5-yl)amino-3,5-dihydrophenazine]
MIC [1]: 0.03 µg/mL (≈ 0.0621 µM)

Clc1ccc(-n2c3c/c(=N\C4CCCCC4)c(Nc4cncnc4)cc-3nc3ccccc32)cc1 [TBI-961, 5-(4-Chlorophenyl)-3-cyclohexylimino-2-(pyrimidin-5-yl)amino-3,5-dihydrophenazine]
MIC [1]: 0.015 µg/mL (≈ 0.0312 µM)

Clc1cccc(-n2c3c/c(=N\C4CCOCC4)c(Nc4cncnc4)cc-3nc3ccccc32)c1 [TBI-980, 5-(3-Chlorophenyl)-3-(4-tetrahydropyranyl)imino-2-(pyrimidin-5-yl)amino-3,5-dihydrophenazine]
MIC [1]: 0.06 µg/mL (≈ 0.124 µM)

COC1CCC(/N=c2\cc3n(-c4ccc(F)cc4)c4ccccc4nc-3cc2Nc2ccc(C)nc2)CC1 (centres unmarked) [TBI-1001, 5-(4-Fluorophenyl)-3-(4-methoxycyclohexyl)imino-2-(6-methyl-3-pyridyl)amino-3,5-dihydrophenazine]
MIC [2]: 0.06 µg/mL (≈ 0.118 µM)

COc1ncccc1Nc1cc2nc3ccccc3n(-c3ccc(F)cc3)c-2c/c1=N\C1CCOCC1 [TBI-1003, 5-(4-Fluorophenyl)-3-(4-tetrahydropyranyl)imino-2-(2-methoxy-3-pyridyl)amino-3,5-dihydrophenazine]
MIC [2]: 0.039 µg/mL (≈ 0.0787 µM)

COc1ncccc1Nc1cc2nc3ccccc3n(-c3ccc(F)cc3)c-2c/c1=N\C1CCN(C)CC1 [TBI-1005, 5-(4-Fluorophenyl)-3-(N-methyl-4-piperidyl)imino-2-(2-methoxy-3-pyridyl)amino-3,5-dihydrophenazine]
MIC [2]: 0.213 µg/mL (≈ 0.419 µM)

COc1ncccc1Nc1cc2nc3ccccc3n(-c3ccc(F)cc3)c-2c/c1=N\C1CCC(O)CC1 (centres unmarked) [TBI-1008, 5-(4-Fluorophenyl)-3-(4-hydroxycyclohexyl)imino-2-(2-methoxy-3-pyridyl)amino-3,5-dihydrophenazine]
MIC [2]: 0.248 µg/mL (≈ 0.487 µM)

COc1ncccc1Nc1cc2nc3ccccc3n(-c3ccc(F)cc3)c-2c/c1=N\C1CCCCC1 [TBI-1009, 5-(4-Fluorophenyl)-3-cyclohexylimino-2-(2-methoxy-3-pyridyl)amino-3,5-dihydrophenazine]
MIC [2]: 0.03 µg/mL (≈ 0.0608 µM)

Cc1ncccc1Nc1cc2nc3ccccc3n(-c3ccc(F)cc3)c-2c/c1=N\C1CCOCC1 [TBI-1012, 5-(4-Fluorophenyl)-3-(4-tetrahydropyranyl)imino-2-(2-methyl-3-pyridyl)amino-3,5-dihydrophenazine]
MIC [2]: 0.026 µg/mL (≈ 0.0542 µM)

COC1CCC(/N=c2\cc3n(-c4ccc(F)cc4)c4ccccc4nc-3cc2Nc2cccnc2C)CC1 (centres unmarked) [TBI-1013, 5-(4-Fluorophenyl)-3-(4-methoxycyclohexyl)imino-2-(2-methyl-3-pyridyl)amino-3,5-dihydrophenazine]
MIC [2]: 0.019 µg/mL (≈ 0.0374 µM)

Cc1ncccc1Nc1cc2nc3ccccc3n(-c3ccc(F)cc3)c-2c/c1=N\C1CC1 [TBI-1014, 5-(4-Fluorophenyl)-3-cyclopropylimino-2-(2-methyl-3-pyridyl)amino-3,5-dihydrophenazine]
MIC [2]: 0.025 µg/mL (≈ 0.0574 µM)

Cc1ncccc1Nc1cc2nc3ccccc3n(-c3ccc(F)cc3)c-2c/c1=N\C1CCC(O)CC1 (centres unmarked) [TBI-1015, 5-(4-Fluorophenyl)-3-(4-hydroxycyclohexyl)imino-2-(2-methyl-3-pyridyl)amino-3,5-dihydrophenazine]
MIC [2]: 0.387 µg/mL (≈ 0.784 µM)

COc1ncccc1Nc1cc2nc3ccccc3n(-c3ccc(F)cc3)c-2c/c1=N\C1CCC1 [TBI-1016, 5-(4-Fluorophenyl)-3-cyclobutylimino-2-(2-methoxy-3-pyridyl)amino-3,5-dihydrophenazine]
MIC [2]: 0.037 µg/mL (≈ 0.0795 µM)

Cc1ccc(Nc2cc3nc4ccccc4n(-c4ccc(F)cc4)c-3c/c2=N\C2CCC2)cn1 [TBI-1017]
MIC [2]: 0.056 µg/mL (≈ 0.125 µM)

Cc1ncccc1Nc1cc2nc3ccccc3n(-c3ccc(F)cc3)c-2c/c1=N\C1CCC1 [TBI-1018, 5-(4-Fluorophenyl)-3-cyclobutylimino-2-(2-methyl-3-pyridyl)amino-3,5-dihydrophenazine]
MIC [2]: 0.028 µg/mL (≈ 0.0623 µM)

CC(C)/N=c1\cc2n(-c3cccc(OC(F)(F)F)c3)c3ccccc3nc-2cc1Nc1cccnc1 [TBI-1019]
MIC [2]: 0.057 µg/mL (≈ 0.116 µM)

FC(F)(F)Oc1cccc(-n2c3c/c(=N\C4CCOCC4)c(Nc4cccnc4)cc-3nc3ccccc32)c1 [TBI-1020, 5-(3-Trifluoromethoxyphenyl)-3-(4-tetrahydropyranyl)imino-2-(3-pyridyl)amino-3,5-dihydrophenazine]
MIC [2]: 0.058 µg/mL (≈ 0.109 µM)

FC(F)(F)Oc1cccc(-n2c3c/c(=N\C4CC4)c(Nc4cccnc4)cc-3nc3ccccc32)c1 [TBI-1021, 5-(3-Trifluoromethoxyphenyl)-3-cyclopropylimino-2-(3-pyridyl)amino-3,5-dihydrophenazine]
MIC [2]: 0.054 µg/mL (≈ 0.111 µM)

FC(F)(F)Oc1cccc(-n2c3c/c(=N\C4CCCCC4)c(Nc4cccnc4)cc-3nc3ccccc32)c1 [TBI-1022, 5-(3-Trifluoromethoxyphenyl)-3-cyclohexylimino-2-(3-pyridyl)amino-3,5-dihydrophenazine]
MIC [2]: 0.074 µg/mL (≈ 0.14 µM)

Cc1ncccc1Nc1cc2nc3ccccc3n(-c3ccc(F)cc3)c-2c/c1=N\C1CCCCC1 [TBI-1023, 5-(4-Fluorophenyl)-3-cyclohexylimino-2-(2-methyl-3-pyridyl)amino-3,5-dihydrophenazine]
MIC [2]: 0.0075 µg/mL (≈ 0.0157 µM)

COC1CCC(/N=c2\cc3n(-c4cccc(OC(F)(F)F)c4)c4ccccc4nc-3cc2Nc2cccnc2)CC1 (centres unmarked) [TBI-1024, 5-(3-Trifluoromethoxyphenyl)-3-(4-methoxycyclohexyl)imino-2-(3-pyridyl)amino-3,5-dihydrophenazine]
MIC [2]: 0.112 µg/mL (≈ 0.2 µM)

Cc1cncc(Nc2cc3nc4ccccc4n(-c4ccc(F)cc4)c-3c/c2=N\C(C)C)c1 [TBI-1025, 5-(4-Fluorophenyl)-3-(1-methylethyl)imino-2-(5-methyl-3-pyridyl)amino-3,5-dihydrophenazine]
MIC [2]: 0.122 µg/mL (≈ 0.279 µM)

COC1CCC(/N=c2\cc3n(-c4ccc(F)cc4)c4ccccc4nc-3cc2Nc2cncc(C)c2)CC1 (centres unmarked) [TBI-1026]
MIC [2]: 0.121 µg/mL (≈ 0.238 µM)

FC(F)(F)Oc1cccc(-n2c3c/c(=N\C4CCC4)c(Nc4cccnc4)cc-3nc3ccccc32)c1 [TBI-1027, 5-(3-Trifluoromethoxyphenyl)-3-cyclobutylimino-2-(3-pyridyl)amino-3,5-dihydrophenazine]
MIC [2]: 0.383 µg/mL (≈ 0.764 µM)

Cc1cncc(Nc2cc3nc4ccccc4n(-c4ccc(F)cc4)c-3c/c2=N\C2CCOCC2)c1 [TBI-1028, 5-(4-Fluorophenyl)-3-(4-tetrahydropyranyl)imino-2-(5-methyl-3-pyridyl)amino-3,5-dihydrophenazine]
MIC [2]: 0.06 µg/mL (≈ 0.125 µM)

Cc1cncc(Nc2cc3nc4ccccc4n(-c4ccc(F)cc4)c-3c/c2=N\C2CCCCC2)c1 [TBI-1029, 5-(4-Fluorophenyl)-3-cyclohexylimino-2-(5-methyl-3-pyridyl)amino-3,5-dihydrophenazine]
MIC [2]: 0.027 µg/mL (≈ 0.0565 µM)

Cc1cncc(Nc2cc3nc4ccccc4n(-c4ccc(F)cc4)c-3c/c2=N\C2CC2)c1 [TBI-1030, 5-(4-Fluorophenyl)-3-cyclopropylimino-2-(5-methyl-3-pyridyl)amino-3,5-dihydrophenazine]
MIC [2]: 0.012 µg/mL (≈ 0.0276 µM)

Cc1cncc(Nc2cc3nc4ccccc4n(-c4ccc(F)cc4)c-3c/c2=N\C2CCC2)c1 [TBI-1031]
MIC [2]: 0.028 µg/mL (≈ 0.0623 µM)

Cc1ncccc1Nc1cc2nc3ccccc3n(-c3cccc(OC(F)(F)F)c3)c-2c/c1=N\C(C)C [TBI-1032, 5-(3-Trifluoromethoxyphenyl)-3-(1-methylethyl)imino-2-(2-methyl-3-pyridyl)amino-3,5-dihydrophenazine]
MIC [2]: 0.107 µg/mL (≈ 0.213 µM)

COC1CCC(/N=c2\cc3n(-c4cccc(OC(F)(F)F)c4)c4ccccc4nc-3cc2Nc2cccnc2C)CC1 (centres unmarked) [TBI-1033, 5-(3-Trifluoromethoxyphenyl)-3-(4-methoxycyclohexyl)imino-2-(2-methyl-3-pyridyl)amino-3,5-dihydrophenazine]
MIC [2]: 0.242 µg/mL (≈ 0.422 µM)

Cc1ncccc1Nc1cc2nc3ccccc3n(-c3cccc(OC(F)(F)F)c3)c-2c/c1=N\C1CCCCC1 [TBI-1034, 5-(3-Trifluoromethoxyphenyl)-3-cyclohexylimino-2-(2-methyl-3-pyridyl)amino-3,5-dihydrophenazine]
MIC [2]: 0.059 µg/mL (≈ 0.109 µM)

Cc1ncccc1Nc1cc2nc3ccccc3n(-c3cccc(OC(F)(F)F)c3)c-2c/c1=N\C1CCOCC1 [TBI-1035, 5-(3-Trifluoromethoxyphenyl) 3-(4-tetrahydropyranyl)imino-2-(2-methyl-3-pyridyl)amino-3,5-dihydrophenazine]
MIC [2]: 0.062 µg/mL (≈ 0.114 µM)

COc1ncccc1Nc1cc2nc3ccccc3n(-c3cccc(OC(F)(F)F)c3)c-2c/c1=N\C(C)C [TBI-1038, 5-(3-Trifluoromethoxyphenylethylethyl)imino-2-(2-methoxy-3-pyridyl)amino-3,5-dihydrophenazine]
MIC [2]: 0.118 µg/mL (≈ 0.227 µM)

COc1ncccc1Nc1cc2nc3ccccc3n(-c3cccc(OC(F)(F)F)c3)c-2c/c1=N\C1CCC(OC)CC1 (centres unmarked) [TBI-1039, 5-(3-Trifluoromethoxyphenyl)-3-(4-methoxycyclohexyl)imino-2-(2-methoxy-3-pyridyl)amino-3,5-dihydrophenazine]
MIC [2]: 0.059 µg/mL (≈ 0.1 µM)

COc1ncccc1Nc1cc2nc3ccccc3n(-c3cccc(OC(F)(F)F)c3)c-2c/c1=N\C1CCCCC1 [TBI-1040, 5-(3-Trifluoromethoxyphenyl)-3-cyclohexylimino-2-(2-methoxy-3-pyridyl)amino-3,5-dihydrophenazine]
MIC [2]: 0.086 µg/mL (≈ 0.154 µM)

COc1ncccc1Nc1cc2nc3ccccc3n(-c3cccc(OC(F)(F)F)c3)c-2c/c1=N\C1CCOCC1 [TBI-1041, 5-(3-Trifluoromethoxyphenyl)-3-(4-tetrahydropyranyl)imino-2-(2-methoxy-3-pyridyl)amino-3,5-dihydrophenazine]
MIC [2]: 0.115 µg/mL (≈ 0.205 µM)

COc1ncccc1Nc1cc2nc3ccccc3n(-c3ccc(F)cc3)c-2c/c1=N\C1CCSCC1 [TBI-1042, 5-(4-Fluorophenyl)-3-(4-tetrahydrothiopyranyl)imino-2-(2-methoxy-3-pyridyl)amino-3,5-dihydrophenazine]
MIC [2]: 0.034 µg/mL (≈ 0.0665 µM)

Cc1ncccc1Nc1cc2nc3ccccc3n(-c3ccc(F)cc3)c-2c/c1=N\C1CCSCC1 [TBI-1043, 5-(4-Fluorophenyl)-3-(4-tetrahydrothiopyranyl)imino-2-(2-methyl-3-pyridyl)amino-3,5-dihydrophenazine]
MIC [2]: 0.021 µg/mL (≈ 0.0424 µM)
